Results on one molecule are retold here after patent publication US20260373119A1, “NOVEL COMPOUND, AND COMPOSITION FOR PREVENTING OR TREATING HER2-POSITIVE CANCER, COMPRISING SAME” (EWHA UNIVERSITY - INDUSTRY COLLABORATION FOUNDATION, priority 2022, published 2026).

The test system of experiment [1] is HeLa (HER2-negative cervical cancer cell line). Briefly: antiproliferative effect, HeLa. The format is cell-based. The note with it: Homo sapiens, 72 hours.
For a further experiment, the target named is ErbB4 (Homo sapiens, UniProt Q15303). Briefly: kinase profiling, ErbB4. It is filed as biochemical. The note with it: read-out: In vitro kinase inhibitory activity (%). As for the experimental part:
Kinase inhibitory activity of the candidate compound at 10 μM and 25 μM was assessed using Eurofins Kinase Profiling Services. Inhibitory effects on c-RAF, EGFR, ErbB2, ErbB4, and PI3 kinase were analyzed according to the Kinase Profiler Service Assay protocol.

In a further experiment the test system is TZMB-resistant cells. Briefly: treatment of TZMB-resistant cells. It is filed as cell-based. The conditions noted are these: BT474 TR, NCI-N87 TR, JIMT-1.

What is called IC50 is the concentration at which inhibition is half-maximal. Low readings indicate higher potency, high ones lower potency.

ErbB4, sequence (Q15303 26-1308): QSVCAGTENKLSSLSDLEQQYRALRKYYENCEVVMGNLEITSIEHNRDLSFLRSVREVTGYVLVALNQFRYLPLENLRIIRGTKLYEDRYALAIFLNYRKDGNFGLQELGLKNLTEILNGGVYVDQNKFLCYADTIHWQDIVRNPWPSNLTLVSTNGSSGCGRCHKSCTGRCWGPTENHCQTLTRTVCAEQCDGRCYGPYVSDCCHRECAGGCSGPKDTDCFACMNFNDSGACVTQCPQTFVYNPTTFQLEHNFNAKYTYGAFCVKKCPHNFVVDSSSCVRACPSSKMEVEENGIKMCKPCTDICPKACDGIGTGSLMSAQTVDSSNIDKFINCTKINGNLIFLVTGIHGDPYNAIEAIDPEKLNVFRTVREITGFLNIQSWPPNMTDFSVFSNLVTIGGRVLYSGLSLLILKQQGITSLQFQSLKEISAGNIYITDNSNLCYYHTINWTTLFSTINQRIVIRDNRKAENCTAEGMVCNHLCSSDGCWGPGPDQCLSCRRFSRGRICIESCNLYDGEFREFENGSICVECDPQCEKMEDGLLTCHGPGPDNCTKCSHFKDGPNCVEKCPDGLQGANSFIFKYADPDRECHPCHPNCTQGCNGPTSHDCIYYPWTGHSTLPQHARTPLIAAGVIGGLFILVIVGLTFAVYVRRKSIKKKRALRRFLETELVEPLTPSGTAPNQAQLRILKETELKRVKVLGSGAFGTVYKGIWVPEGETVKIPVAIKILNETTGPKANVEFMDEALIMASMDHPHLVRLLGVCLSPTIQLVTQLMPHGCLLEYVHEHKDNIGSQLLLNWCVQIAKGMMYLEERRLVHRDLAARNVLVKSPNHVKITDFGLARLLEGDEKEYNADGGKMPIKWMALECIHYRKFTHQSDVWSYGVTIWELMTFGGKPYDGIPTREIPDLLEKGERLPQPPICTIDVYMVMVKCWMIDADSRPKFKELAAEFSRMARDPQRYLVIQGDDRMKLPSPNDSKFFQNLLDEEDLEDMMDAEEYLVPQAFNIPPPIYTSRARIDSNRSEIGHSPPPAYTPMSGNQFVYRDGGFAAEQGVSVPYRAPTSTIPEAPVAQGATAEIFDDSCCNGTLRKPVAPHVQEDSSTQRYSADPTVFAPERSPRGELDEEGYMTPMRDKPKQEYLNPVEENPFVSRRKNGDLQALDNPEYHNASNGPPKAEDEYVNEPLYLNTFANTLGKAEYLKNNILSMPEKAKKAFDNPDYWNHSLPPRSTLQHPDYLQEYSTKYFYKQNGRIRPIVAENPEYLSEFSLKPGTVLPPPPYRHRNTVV
Experimental for TZMB-resistant cells: The ability of the candidate compound to overcome trastuzumab resistance was evaluated.

`CC(=O)N1N=C(c2cccc(O)c2)CC1c1ccc(Cl)cc1` (stereo not shown) [Compound 15, 1-[5-(4-Chlorophenyl)-3-(3-hydroxyphenyl)-4,5-dihydropyrazol-1-yl]-ethanone] displayed an IC50 in experiment [1] of 16.92 ± 0.1 µM. The inhibition at 10 µM on ErbB4 (ErbB4, 10 μM) was 0%. The inhibition at 25 µM on ErbB4 (ErbB4, 25 μM) is 0%. The “anticancer effect in TZMB-resistant cells” value in the experiment on TZMB-resistant cells was “significant anticancer effects not only in TZMB-sensitive cells but also in TZMB-resistant cells”.
